The structures appear in SMILES notation. The source made the active and inactive calls. No rule for the calls is given here.

The results in this text go back to PubChem BioAssay AID1259411 (Chemical Carcinogenesis Research Information System (CCRIS), 2018).

The subject of the data set is rodent carcinogenicity bioassays, tumor incidence. The data set can be described thus: CCRIS carcinogenicity studies. The essentials:
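NCI-built, expert-reviewed records of carcinogenicity and related test outcomes (mutagenicity, tumor promotion/inhibition) compiled from published and report sources, historical span 1985-2011, not updated.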

On to `Nc1ccc(-c2ccc(N)cc2)cc1`, for which the carcinogen call (Species: DOG, Route: ORAL, Tumor Site: Type of Lesion: URINARY BLADDER) is “active; positive”; the carcinogen call (Species: HAMSTER, Route: ORAL, Tumor Site: Type of Lesion: LIVER) is “active; positive”; the carcinogen call (Species: HUMAN, Route: ORAL, INHALATION, DERMAL, Tumor Site: Type of Lesion: URINARY BLADDER) is “active; positive”; the carcinogen call (Species: MOUSE, Route: SUBCUTANEOUS, Tumor Site: Type of Lesion: LIVER) was “active; positive”; the carcinogen call (Species: RAT, Route: ORAL, Tumor Site: Type of Lesion: LIVER) is “active; positive”; the carcinogen call (Species: RAT, Route: SUBCUTANEOUS, Tumor Site: Type of Lesion: LIVER, EAR (ZYMBAL GLAND), INJECTION SITE, Tumor Site: Type of Lesion: LIVER, EAR (ZYMBAL GLAND), INJECTION SITE) is “active; positive”. Further, the carcinogen call (Species: RAT, Strain/Sex: STRAIN-CD/FEMALE, Route: INTRAPERITONEAL, Dose: 0, 10, 30 UMOL/KG IN TRIOCTANOIN 2/WK FOR 4 WK (TOTAL DOSES: 13.5, 40.1 UMOL) (STUDY DURATION: 46 WK), Dose: 0, 10, 30 UMOL/KG IN TRIOCTANOIN 2/WK FOR 4 WK (TOTAL DOSES: 13.5, 40.1 UMOL) (STUDY DURATION: 46 WK), Tumor Site: Type of Lesion: MAMMARY GLAND: FIBROADENOMA, ADENOCARCINOMA, EAR (ZYMBAL GLAND): ADENOMA OR CARCINOMA) was “active; positive”.

With `O=[N+]([O-])c1ccc2ncccc2c1`, the carcinogen call (Species: RAT, Strain/Sex: F344/MALE,FEMALE, Route: ORAL, Dose: 0.05% IN DIET FOR 2 YR) was “inactive; negative”.

On to `Cc1ccc(N=Nc2c(O)c(C(=O)O)cc3ccccc23)c(S(=O)(=O)O)c1`, for which the carcinogen call is, setting by setting: (Species: MOUSE, Strain/Sex: ICR/FEMALE, Route: DERMAL, Dose: 0, 1 MG IN 0.1 ML DISTILLED WATER 2/WK FOR A MEAN TOTAL DOSE OF 130.6 MG (STUDY DURATION: 18 MO)) “inactive; negative”; (Species: MOUSE, Strain/Sex: ICR/MALE, Route: DERMAL, Dose: 0, 1 MG IN 0.1 ML DISTILLED WATER 2/WK FOR A MEAN TOTAL DOSE OF 130.6 MG (STUDY DURATION: 18 MO)) “inactive; negative”.

In the case of `Cc1c(O)cc2c(c1C)OC(C)(CCCC(C)CCCC(C)CCCC(C)C)CC2` (stereo not drawn), the carcinogen call (Species: MOUSE, Strain/Sex: 6HF1/MALE, Route: ORAL, Dose: 0, 5% IN BASAL DIET FOR 104 WK (STUDY DURATION: 104 WK), Tumor Site: Type of Lesion: LIVER: TUMOR) is “active; positive”.

For `Oc1cc2c(c3ccc4ccccc4c13)CCC2`, the carcinogen call (Species: MOUSE, Strain/Sex: TO/MALE, FEMALE, Route: DERMAL, Dose: 0, 50 UG (10 µL OF A 0.5% W/V TOLUENE SOLUTION) 2/WK FOR 70 WK (STUDY DURATION: 70 WK), Tumor Site: Type of Lesion: SKIN: PAPILLOMA OR CARCINOMA) is “active; positive”.

Turning to `C[N+](C)(C)NCCC(=O)[O-]`, the carcinogen call reads like this: (Species: MOUSE, Strain/Sex: B6D2F1/FEMALE, Route: GAVAGE, Dose: 0, 400, 4000 MG/KG BW IN 0.2 ML WATER 3X/WK FOR 22 MONTHS (STUDY DURATION: 22 MONTHS), Dose: 0, 400, 4000 MG/KG BW IN 0.2 ML WATER 3X/WK FOR 22 MONTHS (STUDY DURATION: 22 MONTHS)) “inactive; negative”; (Species: MOUSE, Strain/Sex: C3H/FEMALE, Route: ORAL, Dose: 0, 0.1% IN DRINKING WATER FOR LIFETIME (STUDY DURATION: LIFETIME)) “inactive; negative”; (Species: MOUSE, Strain/Sex: SHR/FEMALE, Route: SUBCUTANEOUS, Dose: 0, 0.1 MG IN ISOTONIC SALINE 1X/D FOR 5 D WITH 4-WK INTERVALS FOR LIFETIME (STUDY DURATION: LIFETIME)) “inactive; negative”.

`OC[C@@H](O)[C@@H](O)[C@H](O)[C@H](O)CO`: the carcinogen call is “inactive; negative” (Species: MOUSE, Strain/Sex: B6C3F1/FEMALE, Route: ORAL, Dose: 0, 2.5, 5% IN THE DIET FOR 103 WK (STUDY DURATION: 103 WK), Dose: 0, 2.5, 5% IN THE DIET FOR 103 WK (STUDY DURATION: 103 WK)); “inactive; negative” (Species: MOUSE, Strain/Sex: B6C3F1/FEMALE, Route: ORAL, Dose: 0, 25000, 50000 PPM IN DIET, Dose: 0, 25000, 50000 PPM IN DIET); “inactive; negative” (Species: MOUSE, Strain/Sex: B6C3F1/MALE, Route: ORAL, Dose: 0, 2.5, 5% IN THE DIET FOR 103 WK (STUDY DURATION: 103 WK), Dose: 0, 2.5, 5% IN THE DIET FOR 103 WK (STUDY DURATION: 103 WK)); “inactive; negative” (Species: MOUSE, Strain/Sex: B6C3F1/MALE, Route: ORAL, Dose: 0, 25000, 50000 PPM IN DIET, Dose: 0, 25000, 50000 PPM IN DIET); “inactive; negative” (Species: RAT, Strain/Sex: F344/FEMALE, Route: ORAL, Dose: 0, 2.5, 5% IN THE DIET FOR 103 WK (STUDY DURATION: 103 WK), Dose: 0, 2.5, 5% IN THE DIET FOR 103 WK (STUDY DURATION: 103 WK)); “inactive; negative” (Species: RAT, Strain/Sex: F344/FEMALE, Route: ORAL, Dose: 0, 25000, 50000 PPM IN DIET, Dose: 0, 25000, 50000 PPM IN DIET). Also, the carcinogen call was “inactive; negative” (Species: RAT, Strain/Sex: F344/MALE, Route: ORAL, Dose: 0, 2.5, 5% IN THE DIET FOR 103 WK (STUDY DURATION: 103 WK), Dose: 0, 2.5, 5% IN THE DIET FOR 103 WK (STUDY DURATION: 103 WK)) and “inactive; negative” (Species: RAT, Strain/Sex: F344/MALE, Route: ORAL, Dose: 0, 25000, 50000 PPM IN DIET, Dose: 0, 25000, 50000 PPM IN DIET).

As for `NC(=O)c1ccccc1C(N)=O`, the carcinogen call runs as follows: (Species: MOUSE, Strain/Sex: B6C3F1/FEMALE, Route: ORAL, Dose: 0, 6200, 12500, 25000 PPM IN DIET FOR 103-105 WK, Dose: 0, 6200, 12500, 25000 PPM IN DIET FOR 103-105 WK) “inactive; negative”; (Species: MOUSE, Strain/Sex: B6C3F1/MALE, Route: ORAL, Dose: 0, 25000, 50000 PPM IN DIET FOR 105 WK, Dose: 0, 25000, 50000 PPM IN DIET FOR 105 WK) “inactive; negative”; (Species: RAT, Strain/Sex: F344/FEMALE, Route: ORAL, Dose: 0, 5000, 10000 PPM IN DIET FOR 106 WK, Dose: 0, 5000, 10000 PPM IN DIET FOR 106 WK) “inactive; negative”; (Species: RAT, Strain/Sex: F344/MALE, Route: ORAL, Dose: 0, 15000, 30000 PPM IN DIET FOR 106 WK, Dose: 0, 15000, 30000 PPM IN DIET FOR 106 WK) “inactive; negative”.

For `CN(C)c1ccc(N=NS(=O)(=O)O)cc1`, the carcinogen call was “inactive; negative” (Species: MOUSE, Strain/Sex: B6C3F1/FEMALE, Route: ORAL, Dose: 0, 0.05, 0.10% OF DIET, TWA, Dose: 0, 0.05, 0.10% OF DIET, TWA); “inactive; negative” (Species: MOUSE, Strain/Sex: B6C3F1/MALE, Route: ORAL, Dose: 0, 0.10, 0.19% OF DIET, TWA, Dose: 0, 0.10, 0.19% OF DIET, TWA); “inactive; negative” (Species: RAT, Strain/Sex: F344/FEMALE, Route: ORAL, Dose: 0, 0.05, 0.10% OF DIET, TWA, Dose: 0, 0.05, 0.10% OF DIET, TWA); “inactive; negative” (Species: RAT, Strain/Sex: F344/MALE, Route: ORAL, Dose: 0, 0.05, 0.10% OF DIET, TWA, Dose: 0, 0.05, 0.10% OF DIET, TWA).

Turning to `CCC(=O)Oc1ccc2c(c1)CC[C@@H]1[C@@H]2CC[C@]2(C)[C@@H](OC(=O)CC)CC[C@@H]12`, under “Species: MOUSE, Route: SUBCUTANEOUS, Tumor Site: Type of Lesion: MAMMARY GLAND”, the carcinogen call is “active; positive”.

With `c1ccc2nc3ccccc3cc2c1`, the carcinogen call (Species: RAT, Strain/Sex: OSBORNE-MENDEL/FEMALE, Route: LUNG IMPLANT, Dose: 0, 0.2, 1.0, 5.0 MG IN BEESWAX/TRICAPRYLIN (STUDY DURATION: LIFETIME), Dose: 0, 0.2, 1.0, 5.0 MG IN BEESWAX/TRICAPRYLIN (STUDY DURATION: LIFETIME)) was “inactive; negative”.
